Broadly, the melting point is the temperature, or range, at which the solid turns liquid.

Structures are written as SMILES. Where “and” joins values, the source holds several entries; their conditions need not be identical. Equal entries are not always repeated.

A short description of data set [1]: Stability in different humidity environments (sealed plastic bottles, 231 days of observation and testing). The format is physicochemical. The note with it: after 231 days. The method, then:
This embodiment studies the stability of 1-(fluorosulfonyl)-2,3-dimethyl-1H-imidazolium trifluoromethanesulfonate in different humidity environments.
Experimental method: 1-(fluorosulfonyl)-2,3-dimethyl-1H-imidazolium trifluoromethanesulfonate was sampled (4.521 g, 4.298 g, 4.273 g) and placed into three plastic bottles (20 mL), which were then sealed with parafilm membrane. The three plastic bottles were placed on an experimental table (22° C.), in a refrigerator (4° C.) or in a dryer (22° C.).

The nature of data set [2]: Stability in deionized water, 19F-NMR tracking of the S-F signal. The format is physicochemical. The note with it: for S-F signal of the solution: deionized water, room temperature. The method, then: This embodiment studies the stability of 1-(fluorosulfonyl)-2,3-dimethyl-1H-imidazolium trifluoromethanesulfonate in deionized water
The experimental method: 1-(fluorosulfonyl)-2,3-dimethyl-1H-imidazolium trifluoromethanesulfonate ([…], 0.1 mmol) was dissolved in deionized water (1 mL) at room temperature to prepare a solution, and the pH value of the obtained solution was measured to be pH=1, ^19F-NMR tracked the change of the S—F signal of the solution, and the results are shown in Table 3.

A short description of data set [3]: Thermal stability on a melting point meter. The class given is physicochemical. The settings on record: temperature set at 129-240° C., heating gradient 1.0° C./min. On the procedure:
This embodiment studies the melting range and thermal stability of 1-(fluorosulfonyl)-2,3-dimethyl-1H-imidazolium trifluoromethanesulfonate
Experimental method: On a melting point meter, the temperature was set at 30-70° C. and the heating gradient at 0.5° C./min, the melting range of the substance of the embodiment was measured to be 62.1-64.2° C.: the temperature was set at 129-240° C. and the heating gradient at 1.0° C./min, the substance slowly bubbled at 135.2° C., and then turned from colorless to pale yellow at 176.5° C., turned to yellow at 185.6° C., turned to dark yellow at 189.9° C., and finally turned to black at 199.4° C.

`Cc1ccc(C2CCCN2S(=O)(=O)F)cc1` (centres unmarked) showed a melting point of 53 to 57 °C.
Take `O=S(=O)(F)N1CCC(Cc2ccccc2)CC1`: the melting point is 54 to 58 °C and 58 to 61 °C and 57 to 61 °C.
Still for that read-out and setting: the same measure for `O=S(=O)(F)N1CCC(c2ccccc2)CC1`: 83 to 84 °C; for `O=C(NC1CCN(S(=O)(=O)F)CC1)c1ccccc1`: 205 to 207 °C.
`COc1cc(C(=O)NC2CCCN(S(=O)(=O)F)C2)cc(OC)c1OC` (centres unmarked) returned a melting point of 184 to 186 °C.
On the same count and under the same terms, for `O=S(=O)(F)N1CCN(S(=O)(=O)F)CC1` the value was 246 to 248 °C; for `CC(C)c1n(S(=O)(=O)F)cc[n+]1C.O=S(=O)([O-])C(F)(F)F`, 77 to 80 °C; for `O=S(=O)(F)NCCc1ccc(O)cc1`, 90 to 92 °C.
`CC(C)(C)OC(=O)[C@H](NS(=O)(=O)F)c1ccccc1` had a melting point of 81 to 84 °C.
The same measure, in the same setting: for `O=S(=O)(F)N[C@@H]1CCC[C@H]1OCc1ccccc1` the value was 76 to 78 °C; for `CN1CN(S(=O)(=O)F)c2ccccc21.O=S(=O)(O)C(F)(F)F`, 121 to 125 °C.
With `O=S(=O)(F)c1ccc(-c2ccc(S(=O)(=O)F)cc2)cc1`, the melting point fell in the range of 95.3 to 96.6 °C.
On the same count and under the same terms, the same measure for `COc1cc(/C=C/c2ccc(OS(=O)(=O)F)cc2)cc(OC)c1`: 80.1 to 81.1 °C; for `O=C(/C=C/c1ccc(S(=O)(=O)F)cc1)c1ccccc1`: 92.8 to 94.2 °C.
Still for that read-out and setting: the same measure for `CC(=O)Nc1ccc(OS(=O)(=O)F)cc1`: 150.3 to 152 °C; for `CC(=O)c1c(OS(=O)(=O)F)ccc2c(C)cc(=O)oc12`: 163.8 to 165.2 °C; for `O=c1ccc2cc(OS(=O)(=O)F)ccc2o1`: 85.3 to 87.9 °C.
Same read-out and setting: for `Cc1ccc2c(Cl)cc(Cl)c(OS(=O)(=O)F)c2n1` the value was 64.6 to 66.2 °C.
The molecule `O=[N+]([O-])c1ccc(OS(=O)(=O)F)c2ncccc12` displayed a melting point of 86.9 to 87.9 °C.
Molecule `COc1cc(C=O)ccc1OS(=O)(=O)F` gave a melting point of 50.8 to 51.8 °C.
`Cc1n(S(=O)(=O)F)cc[n+]1C.O=S(=O)([O-])C(F)(F)F` [Compound 4, 1-(fluorosulfonyl)-2,3-dimethyl-1H-imidazolium trifluoromethanesulfonate]: the melting point fell in the range of 58 to 60 °C. Also, the “S-F signal in 19F NMR spectrum decreased by” value in data set [1] (placed in the dryer (22° C.)) is “by 4%”. Moreover, the “S-F signal in 19F NMR spectrum decreased by” value in data set [1] (placed in the refrigerator (4° C.)) is recorded as “decreased by 1%”. In addition, the “S-F signal in 19F NMR spectrum decreased by” value in data set [1] (placed on the experimental table (22° C.)) was “by 25%”. Also, the “pH value of the obtained solution” value in data set [2] (36 mg, 0.1 mmol dissolved in deionized water (1 mL) at room temperature) was 1. In data set [2] (standing time 12 min), the “S-F signal of the solution” value is reported as 0.77. For the same molecule, the “S-F signal of the solution” value in data set [2] (standing time 30 min) is given as 0.58. Moreover, in data set [2] (standing time 58 min), the “S-F signal of the solution” value came out at 0.35. Further, in data set [2] (standing time 2 h), the “S-F signal of the solution” value worked out at 0.11. Besides, in data set [2] (standing time 2 h 46 min), the “S-F signal of the solution” value is 0.05. In addition, in data set [3], the “temperature at which the substance slowly bubbled” value was 135.2 °C, the “temperature at which the substance turned from colorless to pale yellow” value is 176.5 °C, the “temperature at which the substance turned to black” value came out at 199.4 °C and the “temperature at which the substance turned to dark yellow” value was determined as 189.9 °C. Moreover, the “temperature at which the substance turned to yellow” value in data set [3] stood at 185.6 °C.

The values are drawn from patent US11091442B2, “Fluorosulfonyl-containing compound, intermediate thereof, preparation method therefor and use thereof” (SHANGHAI INSTITUTE OF ORGANIC CHEMISTRY, CHINESE ACADEMY OF …, priority 2017, dated 2021).
